Measurements: patent US11771634B2, “Antimicrobial antifungal composition” (GODREJ INDUSTRIES LIMITED, priority 2021, dated 2023)

Experiments:
[1] = test system: M. furfur; assay: Anti-dandruff efficacy, zone of inhibition; format: cell-based, Malassezia furfur
Source text: Comparison of Anti-Dandruff Efficacy Against M. furfur

[2] = test system: M. furfur; assay: Time kill method (ASTM E 2315-16); format: cell-based, Malassezia furfur; settings: 1% AI
Source text: Time Kill Method (at 1% AI) Against Test Organism M. furfur.

[3] = test system: Candida albicans; assay: MIC by Tube/Plate dilution method; format: cell-based
Experimental: (§1) The minimum inhibitory concentration (MIC) of an antibacterial is the maximum dilution of the product that will still inhibit the growth of a test microorganism. In Tube/Plate dilution method, serial dilutions of the products are made in bacterial growth media, incubated, and scored for growth. It was determined by Tube/Plate method.

[4] = test system: Escherichia coli; assay: MIC by Tube/Plate dilution method; format: cell-based
Experimental: as §1

[5] = test system: Ps. aeruginosa; assay: MIC by Tube/Plate dilution method; format: cell-based
Experimental: as §1

[6] = test system: Staph. aureus; assay: MIC by Tube/Plate dilution method; format: cell-based
Experimental: as §1

[7] = test system: gm +ve and gm −ye micro-organism; assay: Antibacterial efficacy by MIC, overall conclusion; format: cell-based
Experimental: as §1

[8] = test system: zein (corn protein)
Source text: The Zein test enables to determine the irritation potential (harshness) of a surfactant-based product (shower gel, shampoo, soap, washing-up liquid, etc.). It consists in making soluble a yellow corn protein that is similar to the keratin present in the skin and hair. The irritation potential of the product is directly proportional to the quantity of dissolved proteins. The Zein Test provides a rapid and convenient screen for irritation potential, especially for compositions that contain surface active agents.
This method involves measuring the solubility of zein (corn protein) in cleansing base solutions as follows.
To 40 mL of samples, 2 f 0.05 g of zein from corn was added. The solutions with zein were shaken in a shaker with water bath (60 min. at 35° C.). The solutions were filtered on Whatman No. 1 filters and then centrifuged at 5000 rpm for 10 min. The nitrogen content in the solutions was determined by Kjeldahl method. One millilitre of the filtrate was mineralized in sulfuric acid (98%) containing copper sulphate pentahydrate and potassium sulphate. After mineralization, the solution was transferred (with 50 mL of Milli-Q water) into the flask of the Wagner-Parnas apparatus. In the next step, 20 mL of sodium hydroxide (25 wt. %) was added. The released ammonia was distilled with steam. […]
The zein number (ZN) was calculated from the equation: ZN=(10−V1)·100·0.7 [mg N/100 mL] […]

| Compound | Comments (zone of inhibition) ([1]; Active Conc. 1%) | Zone of Inhibition (ZOI) ([1]; Active Conc. 1%) | Comments (zone of inhibition) ([1]; Active Conc. 2%) | Zone of Inhibition (ZOI) ([1]; Active Conc. 2%) | Antimicrobial Activity Log Reduction ([2]; exposure time 1 minute) | Antimicrobial Activity Percentage reduction ([2]; exposure time 1 minute) | Count of Test Organism After Exposure CFU/ml ([2]; exposure time 1 minute) | Count of Test Organism After Exposure Log ([2]; exposure time 1 minute) | Antimicrobial Activity Log Reduction ([2]; exposure time 5 minutes) | Antimicrobial Activity Percentage reduction ([2]; exposure time 5 minutes) | Count of Test Organism After Exposure CFU/ml ([2]; exposure time 5 minutes) | Count of Test Organism After Exposure Log ([2]; exposure time 5 minutes) | MIC [3] | MIC [4] | MIC [5] | MIC [6] | Antibacterial efficacy [7] | Zein Number (ZN) [8] |
| --- | --- | --- | --- | --- | --- | --- | --- | --- | --- | --- | --- | --- | --- | --- | --- | --- | --- | --- |
| C=CCCCCCCCCC(=O)NCCC[N+](C)(C)CC(O)COP(=O)([O-])OCC(O)C[N+](C)(C)CCCNC(=O)CCCCCCCCC=C.[Cl-] (stereo not drawn) [UDAP PB, Undecylenamidopropyl PG-Dimonium Chloride Phosphate] | Effective | 28 mm | Effective | 33 mm | >4.19 Log | >99.99% | <10 CFU/ml | <1 Log | >4.19 Log | >99.99% | <10 CFU/ml | <1 Log | <200 ppm | <300 ppm | <700 ppm | <300 ppm | effective antibacterial | 36 mg N/100 mL |
| zinc pyrithione [ZnPTO, reference compound] | Effective | 34 mm | Effective | 41 mm | >3.95 Log | >99.98% | <10 CFU/ml | <1 Log | >3.95 Log | >99.98% | <10 CFU/ml | <1 Log | – | – | – | – | – | – |
